Assay results from patent US20220016060A1, “USE OF SODIUM 2-(3-PENTYLPHENYL)ACETATE IN THE TREATMENT OF ALSTRÖM SYNDROME” (LIMINAL BIOSCIENCES LIMITED, priority 2018, published 2022).
“And” between values parts separate entries of the source, which are not always exact repeats. Identical values can stand only once. “Also recorded” adds a separate entry of the source.

Tests used:
Assay type in all cases: in vivo, human
ALMS patients [1] = assay: Cardiac MRI of myocardial fibrosis (SAX T1); conditions: for Change from Baseline Basal SAX T1, Mean / Change from Baseline Basal SAX T1, Median / Change from Baseline Mid SAX T1, Mean / Change from Baseline Mid SAX T1, Median: 800 mg daily oral
Procedure: (§1) The study was a Phase 2, single-centre, single-arm, open-label study of sodium 2-(3-pentylphenyl)acetate administered at a total daily oral dose of 800 mg for up to 72 weeks in subjects with ALMS was undertaken. The initial duration of the study was 24 weeks, and subjects were offered to enrol into an extension phase of 36 or 48 weeks. The schedule of study procedures for the enrolment, intervention, and assessments for participants is outlined in FIG. 1. Sodium 2-(3-pentylphenyl)acetate was formulated in soft gelatine capsules containing 200 mg of Sodium 2-(3-pentylphenyl)acetate (amorphous powder) per capsule, polyethylene glycol 400, National Formulary (NF), hydrochloric acid (for pH adjustment), and water. The effect of sodium 2-(3-pentylphenyl)acetate on heart histology in ALMS patients was also assessed by measuring short-axis (plane) longitudinal relaxation time (SAX T1). A decrease in relaxation time reflects an improvement in heart histology, such as a decrease of myocardial fibrosis, which reduces the risk of cardiac failure.

ALMS patients [2] = assay: Enhanced Liver Fibrosis (ELF) blood test; set-up: increase in ELF test score from baseline / Change from Baseline ELF Test, Median / ELF Test score: scale not given here; conditions: for Change from Baseline ELF Test, Mean (SD) / Change from Baseline ELF Test, Median / ELF Test score / Severity of Liver Fibrosis Based on ELF Test: 800 mg daily oral; for ELF Test score / Severity of Liver Fibrosis Based on ELF Test: individual subjects
Procedure: as §1, with “liver” for “heart”, “using the Enhanced Liver Fibrosis (ELF™) blood test. The ELF™ Blood Test combines three serum biomarkers (Hyaluronic acid (HA), Procollagen III amino terminal peptide (PIIINP), and Tissue inhibitor of metalloproteinase 1 (TIMP-1)) which, when correlated, are able to identify” for “by measuring short-axis (plane) longitudinal relaxation time (SAX T1). A decrease in relaxation time reflects an improvement in heart histology, such as”, “quantifiable level” for “decrease”, “liver fibrosis.” for “myocardial fibrosis, which reduces the risk of cardiac failure.”

ALMS patients [3] = assay: Fasting insulin; conditions: for Change from Baseline Fasting Insulin, Mean / Change from Baseline Fasting Insulin, Median: 800 mg daily oral; for decrease of fasting insulin from baseline: Subject 826-001-003
Procedure: as §1, with “water.” for “water. The effect of sodium 2-(3-pentylphenyl)acetate on heart histology in ALMS patients was also assessed by measuring short-axis (plane) longitudinal relaxation time (SAX T1). A decrease in relaxation time reflects an improvement in heart histology, such as a decrease of myocardial fibrosis, which reduces the risk of cardiac failure.”

[4] = Subject 826-001-001, 204-day break in treatment
[5] = Subject 826-001-004, 30-day break in treatment

CCCCCc1cccc(CC(=O)[O-])c1.[Na+] [sodium 2-(3-pentylphenyl)acetate]
Change from Baseline Basal SAX T1, Mean (ALMS patients [1]; EP Week 36 (Week 60), N=4): -84.75 ms
Change from Baseline Basal SAX T1, Median (ALMS patients [1]; EP Week 36 (Week 60), N=4): -80.50 ms
Change from Baseline Mid SAX T1, Mean (ALMS patients [1]; EP Week 36 (Week 60), N=4): -54.63 ms
Change from Baseline Mid SAX T1, Median (ALMS patients [1]; EP Week 36 (Week 60), N=4): -51.00 ms
Change from Baseline Basal SAX T1, Mean (ALMS patients [1]; Week 24, N=9): -10.67 ms
Change from Baseline Basal SAX T1, Median (ALMS patients [1]; Week 24, N=9): -1.50 ms
Change from Baseline Mid SAX T1, Mean (ALMS patients [1]; Week 24, N=9): -4.11 ms
Change from Baseline Mid SAX T1, Median (ALMS patients [1]; Week 24, N=9): 0.00 ms
mean decrease in Basal SAX T1 from baseline (ALMS patients [1]; after 60 weeks of treatment, p=0.0274): 84.75 ms
mean decrease in Mid SAX T1 from baseline (ALMS patients [1]; after 60 weeks of treatment, p=0.0349): 54.63 ms
subjects in whom ELF test score decreased from baseline (ALMS patients [2]; 6/12 subjects): 50.0%
subjects in whom severity of liver fibrosis based on the ELF test was stable or improved from baseline (ALMS patients [2]; 10/12 subjects): 83.3%
Change from Baseline ELF Test, Mean (SD) (ALMS patients [2]; EP Week 12 (Week 36), N=10): −0.24 (1.056)
Change from Baseline ELF Test, Median (ALMS patients [2]; EP Week 12 (Week 36), N=10): −0.02
Change from Baseline ELF Test, Mean (SD) (ALMS patients [2]; EP Week 24 (Week 48), N=9): −0.22 (1.086)
Change from Baseline ELF Test, Median (ALMS patients [2]; EP Week 24 (Week 48), N=9): −0.13
Change from Baseline ELF Test, Mean (SD) (ALMS patients [2]; EP Week 36 (Week 60), N=8): −0.26 (1.193)
Change from Baseline ELF Test, Median (ALMS patients [2]; EP Week 36 (Week 60), N=8): −0.03
change in severity of liver fibrosis based on ELF test (ALMS patients [2]; [4]): increase in liver fibrosis from moderate to severe
increase in ELF test score from baseline (ALMS patients [2]; [4]): 1.36
increase in ELF test score from baseline (ALMS patients [2]; [5]): 1.17
Change from Baseline ELF Test, Mean (SD) (ALMS patients [2]; Week 12, N=12): 0.02 (1.023)
Change from Baseline ELF Test, Median (ALMS patients [2]; Week 12, N=12): 0.24
Change from Baseline ELF Test, Mean (SD) (ALMS patients [2]; Week 24, N=12): −0.26 (0.933)
Change from Baseline ELF Test, Median (ALMS patients [2]; Week 24, N=12): 0.06
ELF Test score (ALMS patients [2]; EP Week 12 (Week 36)): 9.13 and 8.68 and 7.68 and 8.19 and 6.80 and 9.92 and 8.48 and 11.58 and 8.75 and 8.73
Severity of Liver Fibrosis Based on ELF Test (ALMS patients [2]; EP Week 12 (Week 36)): Mod (moderate fibrosis ≥ 7.7 to < 9.8); also recorded: NTM (None to mild fibrosis < 7.7); also recorded: Sev (severe fibrosis ≥ 9.8)
ELF Test score (ALMS patients [2]; EP Week 24 (Week 48)): 10.30 and 8.00 and 6.98 and 7.45 and 6.95 and 8.36 and 11.14 and 8.76 and 8.74
Severity of Liver Fibrosis Based on ELF Test (ALMS patients [2]; EP Week 24 (Week 48)): Sev (severe fibrosis ≥ 9.8); also recorded: Mod (moderate fibrosis ≥ 7.7 to < 9.8); also recorded: NTM (None to mild fibrosis < 7.7)
ELF Test score (ALMS patients [2]; EP Week 36 (Week 60)): 10.28 and 8.42 and 7.16 and 9.90 and 8.50 and 10.79 and 8.64 and 8.74
Severity of Liver Fibrosis Based on ELF Test (ALMS patients [2]; EP Week 36 (Week 60)): Sev (severe fibrosis ≥ 9.8); also recorded: Mod (moderate fibrosis ≥ 7.7 to < 9.8); also recorded: NTM (None to mild fibrosis < 7.7)
ELF Test score (ALMS patients [2]; Week 12): 8.50 and 8.63 and 9.75 and 7.98 and 7.93 and 7.33 and 10.05 and 9.71 and 10.96 and 8.51 and 11.25 and 9.05
Severity of Liver Fibrosis Based on ELF Test (ALMS patients [2]; Week 12): Mod (moderate fibrosis ≥ 7.7 to < 9.8); also recorded: NTM (None to mild fibrosis < 7.7); also recorded: Sev (severe fibrosis ≥ 9.8)
ELF Test score (ALMS patients [2]; Week 24): 9.31 and 9.02 and 8.60 and 7.14 and 7.26 and 7.31 and 10.39 and 8.41 (2×) and 10.69 and 8.47 and 11.29
Severity of Liver Fibrosis Based on ELF Test (ALMS patients [2]; Week 24): Mod (moderate fibrosis ≥ 7.7 to < 9.8); also recorded: NTM (None to mild fibrosis < 7.7); also recorded: Sev (severe fibrosis ≥ 9.8)
Change from Baseline Fasting Insulin, Mean (ALMS patients [3]; EP Week 12 (Week 36), N=10): -920.20 pmol/L
Change from Baseline Fasting Insulin, Median (ALMS patients [3]; EP Week 12 (Week 36), N=10): -53.50 pmol/L
Change from Baseline Fasting Insulin, Mean (ALMS patients [3]; EP Week 24 (Week 48), N=9): -1371.78 pmol/L
Change from Baseline Fasting Insulin, Median (ALMS patients [3]; EP Week 24 (Week 48), N=9): -24.00 pmol/L
Change from Baseline Fasting Insulin, Mean (ALMS patients [3]; EP Week 36 (Week 60), N=8): -1191.63 pmol/L
Change from Baseline Fasting Insulin, Median (ALMS patients [3]; EP Week 36 (Week 60), N=8): 7.00 pmol/L
Change from Baseline Fasting Insulin, Mean (ALMS patients [3]; EP Week 48 (Week 72), N=3): -3933.00 pmol/L
Change from Baseline Fasting Insulin, Median (ALMS patients [3]; EP Week 48 (Week 72), N=3): 193.00 pmol/L
increase in fasting insulin from baseline (ALMS patients [3]; [4]): 420 pmol/L
decrease of fasting insulin from baseline (ALMS patients [3]; after 24 weeks): ~30%
decrease of fasting insulin from baseline (ALMS patients [3]; after 72 weeks): > 96%
increase in fasting insulin from baseline (ALMS patients [3]; [5]): 298 pmol/L
increase in fasting insulin from baseline (ALMS patients [3]; Subject 826-001-007, 32-day break in treatment): 1970 pmol/L
increase in fasting insulin from baseline (ALMS patients [3]; Subject 826-001-013, 30-day break in treatment): 1160 pmol/L
Change from Baseline Fasting Insulin, Mean (ALMS patients [3]; Week 12, N=12): -18.92 pmol/L
Change from Baseline Fasting Insulin, Median (ALMS patients [3]; Week 12, N=12): 9.00 pmol/L
Change from Baseline Fasting Insulin, Mean (ALMS patients [3]; Week 24, N=12): -339.08 pmol/L
Change from Baseline Fasting Insulin, Median (ALMS patients [3]; Week 24, N=12): -86.00 pmol/L
Fasting Insulin (ALMS patients [3]; by-subject listing, ALMS subjects, EP Week 48 (Week 72)): 460 pmol/L and 600 pmol/L and 303 pmol/L
